The test system of series [1] is KSHV-infected DMVEC. The note with it: cited from earlier work.
Series [2] concerns KSHV-infected DMVEC. The note with it: cited from earlier work. This is another data set of the same source.
In the next series the test system is Uninfected DMVEC. The note with it: cited from earlier work.
A further series has as its system Neuritin mRNA. The series can be described thus: qPCR of target mRNA after siRNA transfection: Neuritin. It counts as cell-based, human. The note with it: relative to controls; RNA harvested day 3 post-transfection. As to the method:
(§1) Quantitative PCR. Real-time PCR was performed on an ABI 7700 sequence detection system (Applied Biosystems). To normalize gene expression between mock and infected samples, 18S RNA, beta-Actin and GAPDH were assessed. […] Total RNA was treated with Dnase I (Dnase Free:Ambion) before synthesis of cDNA by random hexamers and Superscript II (Invitrogen). […] Relative expression values between mock and infected samples were calculated by the comparative CT Method as previously described (Moses et al, 2002). […]
(§2) siRNA treatment and Focus Inhibition Assay. siRNA oligonucleotides were designed using the oligoengine design tool (Oligoengine, Seattle, Wash.). […] Cells were monitored for up to 14 days for evidence of foci-formation, as described for the PMO-AS assays. […]
Specifically, FIGS. 6A-D show, according to particular aspects of the present invention, small interfering RNA (siRNA) inhibition of RDC1, Neuritin, INSR and IGFBP2. […] Cells were treated with siRNA and monitored for up to 14 days. To calculate mRNA degradation, mRNA was isolated and qPCR was performed. mRNA levels were calculated relative to a FITC-tagged control siRNA (100%). […]

In series [3] the test system is KSHV-infected DMVEC. The series can be described thus: siRNA treatment and focus inhibition assay. It is filed as cell-based, human. The note with it: observed up to 14 days post-transfection. As to the method: siRNA treatment and Focus Inhibition Assay. siRNA oligonucleotides were designed using the oligoengine design tool (Oligoengine, Seattle, Wash.). RNA olionucleotides were purchased from Oligoengine or Dharmacon Inc. (Lafayette, Colo.). […] The twenty-one nucleotide RNA oligos were resuspended according to manufacturer's instructions to obtain either 20 microM or 50 microM solutions and delivered to DMVEC by transfection. For transfection, cells were seeded into 35 mm plates for overnight incubation, and transfections were performed at approximately 80% confluence according to published methods. Briefly, from a 20 microM siRNA stock solution, 12 microL of siRNA was added (240 pmol) to 200 microL OPTI-MEM medium (Gibco). After a 10 minute incubation, 12 microL Oligofectamine (Invitrogen) diluted in 48 microL OPTI-MEM was mixed with the diluted siRNA and incubated for an addition 20 minutes. The complex was added dropwise to a […] containing 1 ml of complete endothelial growth medium. Cells were monitored for up to 14 days for evidence of foci-formation, as described for the PMO-AS assays. Control Cy3-Luciferase GL2 Duplex siRNA (Dharmacon) was used to monitor transient tranfection and the duration of siRNA expression in endothelial cells. Cy3 siRNA was visible for over 3 weeks post-transfection. […]

The next series concerns RDC1 mRNA. Nature of the series: qPCR of target mRNA after siRNA transfection: RDC1. It is filed as cell-based, human. The note with it: relative to FITC-tagged control siRNA or transfection reagent alone; KSHV-DMVEC. The method, then:
as §1, §2
Specifically, FIGS. 6A-D show, according to particular aspects of the present invention, small interfering RNA (siRNA) inhibition of RDC1, Neuritin, INSR and IGFBP2. […] Cells were treated with siRNA and monitored for up to 14 days. To calculate mRNA degradation, mRNA was isolated and qPCR was performed. mRNA levels were calculated relative to a FITC-tagged control siRNA (100%).
(In general: Quantitative PCR measures a nucleic acid by following its amplification.)

For `Cc1ccc(NC(=O)c2ccc(CN3CCN(C)CC3)cc2)cc1Nc1nccc(-c2cccnc2)n1` [STI 571], in the series on KSHV-infected DMVEC [1], the “nonspecific cytotoxicity (cell viability controls)” value was “not due to nonspecific cytotoxicity” and the “proliferative response to exogenous SCF” value was “inhibited”. Moreover, the focus formation entry in the series on KSHV-infected DMVEC [2] (KSHV-infected DMVEC) is listed as “focus formation is inhibited”. In the series with KSHV-infected DMVEC [2] (even after exposure of cells to a 10 μM dose), the “phenotype after removal of drug” value was “regeneration of the transformed phenotype”. Further, in the series on Uninfected DMVEC, the “effect on cell morphology or viability” value is listed as “has effect on cell morphology or viability”.
For “Neuritin siRNA: Neuritin siRNA, AAAGATATCTGATTAATTCCA (SEQ ID NO:42) (guide AAAGATATCTGATTAATTCCA; listed as DNA, chemistry not given here)”, the “reduction in Neuritin mRNA levels” value in the series with Neuritin mRNA is 63%. Besides, the “KSHV-induced focus formation / contact inhibition after siRNA” value with KSHV-infected DMVEC [3] was “maintained contact-inhibited growth”.
Turning to “RDC1 siRNA #1: RDC1 siRNA giving the larger mRNA decrease; presumably RDC1-234, AACATGCCCAACAAAAGCGTC (guide AACATGCCCAACAAAAGCGTC; listed as DNA, chemistry not given here)”, in the series with RDC1 mRNA, the “reduction of RDC1 mRNA” value worked out at 56%. For the same compound, the “KSHV-induced focus formation / contact inhibition after siRNA” value in the series on KSHV-infected DMVEC [3] was “more stringent maintenance of contact inhibition”.
